For one series, the target named is T1, hPPARγ1 (Homo sapiens, UniProt P37231).
T1 construct: expressed in transfected cells; host or cells: HEK-293
T1 sequence (P37231 238-503 limits assumed): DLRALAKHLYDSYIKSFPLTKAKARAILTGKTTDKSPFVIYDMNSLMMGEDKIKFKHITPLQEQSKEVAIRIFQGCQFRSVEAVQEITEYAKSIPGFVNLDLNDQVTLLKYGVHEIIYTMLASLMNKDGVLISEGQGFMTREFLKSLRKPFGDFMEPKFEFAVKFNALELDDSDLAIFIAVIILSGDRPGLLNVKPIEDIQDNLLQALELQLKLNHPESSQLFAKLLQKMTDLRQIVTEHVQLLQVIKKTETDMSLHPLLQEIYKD
The series can be described thus: Determination of hPPARγ activity (GAL4-LBD luciferase reporter in HEK-293 cells). Type of series: cell-based. The note with it: compound concentration 1 μM. The protocol:
Ligand binding domain of hPPARγ1 is fused to DNA binding domain of Yeast transcription factor GAL4 in eucaryotic expression vector. Using lipofectamine (Gibco BRL, USA) as transfecting reagent HEK-293 cells are transfected with this plasmid and a reporter plasmid harboring the luciferase gene driven by a GAL4 specific promoter. Compound can be added at 1 μM. concentration after 48 hrs of transfection and incubated overnight Luciferase activity as a function of drug binding/activation capacity of PPARγ1 will be measured using Packard Luclite kit (Packard, USA) in Packard Top Count (Ivan Sadowski, Brendan Bell, Peter Broag and Melvyn Hollis. Gene. 1992. 118:137-141; Guide to Eukaryotic Transfections with Cationic Lipid Reagents. Life Technologies, GIBCO BRL, USA).
A general note: Reporter assays use an easily measured gene product as a stand-in for the process of interest.

For another series, the target named is T2, hPPARα (Homo sapiens, UniProt Q07869).
T2 construct: expressed in transfected cells; host or cells: HEK-293
T2 sequence (Q07869 239-466 limits assumed): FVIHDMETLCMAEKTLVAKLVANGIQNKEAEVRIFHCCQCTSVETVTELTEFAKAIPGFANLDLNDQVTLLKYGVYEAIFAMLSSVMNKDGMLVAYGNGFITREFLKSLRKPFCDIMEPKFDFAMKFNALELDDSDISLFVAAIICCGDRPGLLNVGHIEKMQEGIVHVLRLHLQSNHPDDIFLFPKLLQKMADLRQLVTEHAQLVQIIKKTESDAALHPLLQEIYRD
The experiment in a line: Determination of hPPARα activity (GAL4-LBD luciferase reporter in HEK-293 cells). The format is cell-based. As to conditions: compound concentration 50 μM. The protocol:
Ligand binding domain of hPPARα was fused to DNA binding domain of Yeast transcription factor Gal 4 in eucaryotic expression vector. Using superfect (Qiagen, Germany) as transfecting reagent HEK-293 cells are transfected with this plasmid and a reporter plasmid harboring the luciferase gene driven by a GAL4 specific promoter. Compound can be added at different concentrations after 42 hrs of transfection and incubated overnight. Luciferase activity as a function of compound binding/activation capacity of PPARα will be measured using Packard Luclite kit (Packard, USA) in Top Count (Ivan Sadowski, Brendan Bell, Peter Broag and Melvyn Hollis. Gene. 1992. 118: 137-141; Superfect Transfection Reagent Handbook. February 1997. Qiagen, Germany).

Series [1] concerns cholesterol fed Syrian Hamsters. The experiment in a line: Body weight reducing effect in cholesterol fed hamsters. The format is in vivo, hamster. The note with it: dose 3 mg/kg, oral, 15 days. The protocol:
Male Syrian Hamsters are procured from NIN, Hyderabad, India. Animals are housed at DRF animal house under 12 hour light and dark cycle at 25±1° C. with free access to food and water. Animals are maintained with 1% cholesterol containing standard laboratory chow (NIN) from the day of treatment.
The test compounds can be administered orally at 1 to 30 mg/kg/day dose for 15 days. Control group animals are treated with vehicle (Mill Q water, dose 10 ml/kg/day). Body weights are measured on every 3rd day.
(§1) Formulae for Calculation: 1. Percent reduction in Blood sugar triglycerides/total cholesterol will be calculated according to the formula: [formula] OC=Zero day control group value OT=Zero day treated group value TC=Test day control group value TT=Test day treated group value 2. LDL and VLDL cholesterol levels will be calculated according to the formula: [formula] [formula]

A further series has as its system C57BL/Ks-db/db mice. The experiment in a line: Efficacy in genetic models: triglyceride lowering in db/db mice. Type of series: in vivo, mouse. As to conditions: dose 1 mg/kg, oral gavage daily for 6 days, plasma. The source says: Mutation in colonies of laboratory animals and different sensitivities to dietary regimens has made the development of animal models with non-insulin dependent diabetes and hyperlipidemia associated with obesity and insulin resistance possible. Genetic models such as db/db and ob/ob (Diabetes, (1982) 31(1): 1-6) mice and zucker fa/fa rats have been developed by the various laboratories for understanding the pathophysiology of disease and testing the efficacy of new antidiabetic compounds (Diabetes, (1983) 32: 830-838; Annu. Rep. Sankyo Res. Lab. (1994). 46: 1-57). […]
The random blood sugar and triglyceride levels can be measured by collecting blood (100 μl) through orbital sinus, using heparinised capillary in tubes containing EDTA which was centrifuged to obtain plasma. The plasma glucose and triglyceride levels can be measured spectrometrically, by glucose oxidase and glycerol-3-PO4 oxidase/peroxidase enzyme (Dr. Reddy's Lab. Diagnostic Division Kits, Hyderabad, India) methods respectively.
The blood sugar and triglycerides lowering activities of the test compound are calculated according to the formula.
(§2) Formulae for Calculation: 1. Percent reduction in Blood sugar triglycerides/total cholesterol will be calculated according to the formula: [formula] […] LDL and VLDL cholesterol levels will be calculated according to the formula: [formula] […]

The subject of a further series is Swiss albino mice. The series can be described thus: Plasma triglyceride and total cholesterol lowering activity in Swiss albino mice. Type of series: in vivo, mouse. The note with it: dose 3 mg/kg, oral, 6 days. Here is the method: Male Swiss albino mice (SAM) were obtained from NIN and housed in DRF animal house. All these animals are maintained under 12 hour light and dark cycle at 25±1° C. Animals are given standard laboratory chow (NIN, Hyderabad, India) and water, ad libitum. SAM of 20-25 g body weight range and Guinea pigs of 500-700 g body weight range are used (Oliver, P., Plancke, M. O., Marzin, D., Clavey, V., Sauzieres, J and Fruchart, J. C. Effects of fenofibrate, gemfibrozil and nicotinic acid on plasma lipoprotein levels in normal and hyperlipidemic mice. Atherosclerosis. 1988. 70: 107-114).
The test compounds can be administered orally to Swiss albino mice at 0.3 to 30 mg/kg/day dose for 6 days. Control mice are treated with vehicle (0.25% Carboxymethylcellulose; dose 10 ml/kg). The test compounds are administered orally to Guinea pigs at 0.3 to 30 mg/kg/day dose for 6 days. Control animals are treated with vehicle (0.25% Carboxymethylcellulose; dose 5 ml/kg).
The blood samples can be collected in fed state 1 hour after drug administration on 0 and 6 day of treatment. […]
as §2

Series [2] has as its system hypercholesterolemic Sprague Dawley rats. The experiment in a line: Plasma triglyceride and cholesterol lowering activity in hypercholesterolemic rat models. Type of series: in vivo. As to conditions: dose 1 mg/kg, oral, 3 days. The protocol: Male Sprague Dawley rats (NIN stock) were bred in DRF animal house. Animals were maintained under 12 hour light and dark cycle at 25±1° C. Rats of 180-200 gram body weight range were used for the experiment. Animals are made hypercholesterolemic by feeding 2% cholesterol and 1% sodium cholate mixed with standard laboratory chow [National Institute of Nutrition (NE), Hyderabad, India] for 6 days. Throughout the experimental period the animals were maintained on the same diet (Petit, D., Bonnefis, M. T., Rey, C and Infante, P Effects of ciprofibrate on liver lipids and lipoprotein synthesis in normo- and hyperlipidemic rats. Atherosclerosis. 1988. 74: 215-225).
The test compounds can be administered orally at a dose 0.1 to 30 mg/kg/day for 3 days. Control group was treated with vehicle alone (0.25% Carboxymethylcellulose; dose 10 ml/kg).
The blood samples can be collected in fed state 1 hour after drug administration on 0 and 3 day of compound treatment The blood can be collected from the retro-orbital sinus through heparinised capillary in EDTA containing tubes. After centrifugation, plasma sample will be separated for total cholesterol, HDL and triglyceride estimations. Measurement of plasma triglyceride, total cholesterol and HDL are were done using commercial kits (Dr. Reddy's Laboratory, Diagnostic Division, India). LDL and VLDL cholesterol can be calculated from the data obtained for total cholesterol, HDL and triglyceride. The reduction of various parameters examined are calculated according to the formula.
as §1

Regarding `C/C(=C\COc1ccc(OC(C)(C)C(=O)O)cc1)c1ccc2c(c1)Cc1ccccc1-2` [Example 31], the melting point (as a rule, the temperature, or range, at which the solid turns liquid) lay within 155 to 158 °C.

For `CC(C)(Oc1ccc(OC/C=C/c2ccc(OS(C)(=O)=O)cc2)cc1)C(=O)O` [Example 45], the melting point was in the range of 112 to 114 °C.

Compound `CC(C)(Oc1ccc(OCCCc2ccc(OS(C)(=O)=O)cc2)cc1)C(=O)O` [Example 48] came in with a melting point of 64 to 66 °C.

In turn, `CC(C)(Oc1ccc(OC/C=C/c2ccc(-c3ccccc3)cc2)cc1)C(=O)O` [Example 43] returned a melting point of 172 to 174 °C.

`C/C(=C\CNc1ccc(OC(C)(C)C(=O)O)cc1)c1ccc(-c2ccccc2)cc1` [Example 35] came in with a melting point of 184 to 188 °C.

Consider `C/C(=C\COc1ccc(OC2(C(=O)O)CCCC2)cc1)c1ccc(-c2ccccc2)cc1` [Example 47], for which the melting point lay in the range of 142 to 144 °C.

`C/C(=C\COc1ccc(OC(C(=O)O)C(C)C)cc1)c1ccc(-c2ccccc2)cc1` (centres unmarked) [Example 44] returned a melting point of 136 to 140 °C.

With `CCOC(=O)C(C)(C)Oc1ccc(OC/C=C(\C)c2ccc3c(c2)Cc2ccccc2-3)cc1` [Example 7], the melting point was in the range of 155 to 158 °C.

`CCN1c2ccccc2Oc2ccc(/C(C)=C/COc3ccc(OC(C)(C)C(=O)O)cc3)cc21` [Example 32] gave a melting point of 114 to 116 °C.

In turn, `CC(CCOc1ccc(OC(C)(C)C(=O)O)cc1)c1ccc(-c2ccccc2)cc1` (centres unmarked) [Example 49] returned a melting point of 120 to 122 °C.

With `C/C(=C\COc1ccc(SC(C)(C)C(=O)O)cc1)c1ccc(-c2ccccc2)cc1` [Example 41], the melting point was 162 to 165 °C.

With `CC(C)C(Sc1ccc(OCCCc2ccc(OS(C)(=O)=O)cc2)cc1)C(=O)O` (centres unmarked) [Example 28], the melting point was in the range of 115 to 118 °C.

Take `C/C(=C\COc1ccc(OC(C)(C)C(=O)O)cc1)c1ccc(-c2ccc(C(F)(F)F)cc2)cc1` [Example 40]: the melting point is 150 to 154 °C. Also, at hPPARγ1, the PPARγ was 1.3. For the same compound, at hPPARα, the PPARα is reported as 12.6.

Turning to `C/C(=C\COc1ccc(OC(C)(C)C(=O)O)cc1)c1ccc(-c2ccccc2)cc1` [Example 25, 2-[4-(3-Biphenyl-4-yl-but-2-enyloxy)phenoxy]-2-methyl propanoic acid], in series [1], the “Reduction in Body weight (%)” value came out at 22%, the “Reduction in Total Cholesterol (%)” value was 55% and the “Reduction in Triglyceride (%)” value came out at 45%.

`CCOC(=O)C1(Oc2ccc(OC/C=C(\C)c3ccc(-c4ccccc4)cc3)cc2)CCCC1` [Example 23]: the melting point is 112 to 114 °C.

`C/C(=C\COc1ccc(OC(C)(C)C(=O)O)cc1)c1ccc(-c2cc(Cl)cc(Cl)c2)cc1` [Example 38]: the melting point is 52 to 54 °C.

Turning to `CCC(C)(Oc1ccc(OC/C=C(\C)c2ccc(-c3ccccc3)cc2)cc1)C(=O)O` (centres unmarked) [Example 37], the melting point lay within 114 to 117 °C. In addition, the “Triglyceride Lowering (%)” value in the series on C57BL/Ks-db/db mice was 52%. Moreover, in the series on Swiss albino mice, the “Triglyceride Lowering (%)” value stood at 71%. Moreover, the “Reduction in Low Density Lipoprotien (%)” value in series [2] (LDL calculated from total cholesterol, HDL and triglyceride) was 64%. Further, in series [2] (plasma), the “Increase in High Density Lipoprotien (%)” value is recorded as 70%, the “Reduction in Total Cholesterol (%)” value is 60% and the “Triglyceride Lowering (%)” value was determined as 55%. This compound yielded a PPARγ on hPPARγ1 of 2.8. On hPPARα, the PPARα is listed as 12.2.

For the compound `CC(C)(Oc1ccc(OCCc2ccc(-c3ccccc3)cc2)cc1)C(=O)O` [Example 30], the melting point is 138 to 140 °C.

In turn, `C/C(=C\COc1ccc(SC(C)(C)C(=O)O)cc1)c1ccc(-c2ccc(C(F)(F)F)cc2)cc1` [Example 42] returned a melting point of 142 to 146 °C.

`CCC(C)(Oc1ccc(OC/C=C(\C)c2ccc(-c3ccc(F)cc3)cc2)cc1)C(=O)O` (centres unmarked) [Example 36]: the melting point was 122 to 125 °C.

The record behind these values is patent publication US20070043035A1, “Novel compounds and their use in medicine: process for their preparation and pharmaceutical compositions containing them” (priority 2003, published 2007).
